# Laboratory results: patent US12691084B2, “Pharmaceutical composition for preventing or treating bone diseases” (INDUSTRY FOUNDATION OF CHONNAM NATIONAL UNIVERSITY, priority 2019, dated 2026)
# Columns and labels:
# mouse bone marrow cells = experiment: Bone resorption assay on calcium phosphate coated plate; type: cell-based; conditions: 6 days; for decrease in bone resorption ability: compared to differentiated osteoclasts (Ctrl) not treated, fluorescence absorbance
# Procedure: Bone resorption ability was confirmed using a bone resorption assay kit (Cosmo Rio, CSR-BRA). 2.5×10^4 mouse bone marrow cells per well were put into a 48-well plate coated with calcium phosphate, followed by treating the cells with PMSA to perform differentiation for 6 days. After 6 days, a fluorescence absorbance was measured with the culture medium to confirm the bone absorption ability. Further, decomposition degree of calcium phosphate was photographed a microscope to confirm the bone resorption ability. […] In FIG. 4, BMMs refer to monocytes that are not differentiated osteoclasts.
# Further, the bone resorption ability was confirmed using a bone resorption assay kit (Cosmo Bio, CSR-BRA). 2.5×10^4 mouse bone marrow cells per well were put into a 48-well plate coated with calcium phosphate, and were differentiated for 6 days while being treated with PSTP-3,5-Me. After 6 days, the fluorescence absorbance was measured with the culture medium to confirm the bone absorption ability.
# [1] = system: monocytes isolated from mouse bone marrow treated with RANKL; experiment: Osteoclast differentiation inhibition, TRAP staining and assay; type: cell-based; conditions: for cells differentiated into osteoclasts (differentiation area ratio per total area): 10 μM, RANKL, Image J; for cells differentiated into osteoclasts (differentiation area ratio per total area) / osteoclast differentiation inhibitory ability: TRAP staining; for osteoclast differentiation inhibitory ability: area of differentiated osteoclasts
# Procedure: Macrophages were isolated from bone marrow of 8-week old C57BL/6J mice, and seeded on a 96-well plate in an amount of 1×10^4 cells per well, followed by treating the cells with osteoclast differentiation factors M-CSF and RANKL at 30 ng/ml and 50 ng/ml, respectively. At the same time, the compounds were used for treatment, followed by culturing the cells for 3 to 4 days. Thereafter, differentiation influence was evaluated through TRAP staining and cell counting. Specific experimental procedures and results are as follows.
# The bone marrow of a 10-week-old female mouse was isolated from the hip bone, femur and tibia, and incubated in α-MEM medium (Gibco, 12561-056, 10% fetal bovine serum, 1% penicillin/streptomycin) containing macrophage colony stimulating factor (M-CSF, PeproTech, 315-02, 30 ng/ml) for […] so as to isolate only monocytes. The isolated monocytes were treated with receptor activator of nuclear factor kappa B ligand (RANKL, PeproTech, 315-11, 50 ng/ml) to induce osteoclast differentiation. When a morphology of fused multinuclear cells began to appear from day 3 after treatment with RANKL, the cells were differentiated into giant multinuclear cells for 4 to 6 days (see FIG. 1), and dead by cell apoptosis after 6 days.
# During RANKL treatment, each PMSA compound was also used for treatment, followed by culturing the cells for 3 or 5 days to confirm the effects of inhibiting osteoclast differentiation.
# 1×10^4 monocytes isolated from mouse bone marrow were put into a 96-well plate and treated with RANKL and PMSA together to confirm the effect of each PMSA on osteoclast differentiation ability. Each PMSA was used for treatment by concentration. The activity of tartrate-resistant acid phosphatase (TRAP), which has increased expression during osteoclast differentiation, was confirmed using a TRAP activity assay kit (Cosmo Bio, PMC-AK04F-COS) (see FIG. 2).
# Further, after staining, the multinuclear cells formed during osteoclast differentiation were observed under a microscope, and each well was photographed and a differentiation area ratio per total area was determined using Image J software. […] Specifically, at 10 μM concentration, cells were differentiated into osteoclasts by 30% when using #25 (PMSA-3-Ac), similarly, 74% using #25-C (PMSA-Ph), 63% using #25-N (PMSA-PhN), 41% using #25-PhO (PMSA-O), and only 1% using #25-D12 (PMSA-2-OMe-5-Cl), respectively. […]
# Microsomal stability (H) = type: in vitro ADME, human; conditions: H of H/M; criterion >60%
# Procedure: (§1) In order to analyze the drug metabolism of PMSA compound, ADME evaluation was requested to the Daegu-Gyeongbuk Advanced Medical industry Promotion Foundation (DGMIF). Metabolic stability of drugs using liver microsomes (microsomal stability), drug metabolism inhibitory ability by five CYP450 enzymes, plasma metabolism (plasma stability), plasma protein binding, and intestinal permeability of drugs (PAMPA, parallel artificial membrane permeability assay) were analyzed. […] Further, it was confirmed that the permeability resistance was excellent (see Table 3 below). On the other hand, for one of PMSA derivatives, that is, 2-(N-(3,5-dimethylphenyl)methylsulfinamido)-N-(2 (phenylthio)phenyl)propanamide (#25-D5), intestinal permeability of the drug (PAMPA) was not measured.
# CYP2C9 = CYP2C9 (Homo sapiens, UniProt P11712); experiment: CYP450 drug metabolism inhibition, 2C9; type: in vitro ADME; conditions: criterion remaining activity >50%
# Procedure: as §1
# [2] = system: osteoclast-specific genes (CatK, NFATc1, DC-STAMP, OC-STAMP, Acp5); experiment: qRT-PCR of osteoclast-specific gene mRNA expression; type: cell-based, mouse; conditions: for mRNA expression of DC-STAMP / mRNA expression of OC-STAMP / mRNA expression of cathepsin K (CtsK): day 3 of differentiation, compared to control (Ctrl) without PMSA treatment
# Procedure: Further, in order to confirm the expression degree of the osteoclast-specific gene, an mRNA expression level was measured by RT-PCR in the PMSA compound-treated cells. RNA was isolated from the cells differentiated into osteoclasts using an RNeasy kit (Qiagen, 74106), quantified using a spectrophotometer, followed by synthesizing 0.5 μg of RNA using reverse transcriptase (Takara, RR037 A). The synthesized cDNA was subjected to qRT-PCR with a QuantStudio 3 real-time PCR system (Applied Biosystems) using Power SYBR Green […] (Applied Biosystems).
# All qPCR experiments were performed in duplicate, and 18S was used as a control. The ddCT method was used for data analysis.
# In order to further confirm the inhibitory effect of PSTP-3,5-Me on osteoclast differentiation, the expression levels genes related to osteoclast production were investigated. mRNA expression of specific markers associated with osteoclast production was measured by RT-PCR in 0 or 6 μM PSTP-3,5-Me-treated cells.
# For qRT-PCR, total RNA was extracted from BMMs using a TRIzol reagent (Thermo Fisher Scientific, MA, USA). Complementary DNA was synthesized from the total RNA using a Verso cDNA synthesis kit (Thermo Fisher Scientific, MA, USA). Thereafter, quantitative PCR (qPCR) was performed using the QuantStudio 3 real-time PCR system (Applied Biosystems, CA, USA) together with Power SYBR Green PCR Master Mm (Applied Biosystems, CA, USA).
# [3] = compared to group in which osteoclasts are normally differentiated
# [4] = 6 μM compared to control (0 μM)
# Sequence of CYP2C9 (P11712 whole entry): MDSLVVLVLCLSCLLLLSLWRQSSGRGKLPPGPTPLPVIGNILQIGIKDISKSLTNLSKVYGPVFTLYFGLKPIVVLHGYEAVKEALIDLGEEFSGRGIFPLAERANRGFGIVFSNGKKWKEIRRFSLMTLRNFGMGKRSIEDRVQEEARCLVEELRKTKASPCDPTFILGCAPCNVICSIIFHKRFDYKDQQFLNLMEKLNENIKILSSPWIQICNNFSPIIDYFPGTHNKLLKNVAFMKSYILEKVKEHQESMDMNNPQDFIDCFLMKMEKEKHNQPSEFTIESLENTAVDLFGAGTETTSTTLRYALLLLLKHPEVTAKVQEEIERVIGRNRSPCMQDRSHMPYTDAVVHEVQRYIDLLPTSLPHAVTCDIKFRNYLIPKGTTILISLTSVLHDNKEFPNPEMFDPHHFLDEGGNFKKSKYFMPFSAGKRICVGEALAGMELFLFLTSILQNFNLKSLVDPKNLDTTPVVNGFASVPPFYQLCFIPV
compound,measurement,setting,value
"CC(=O)c1cccc(N(CC(=O)Nc2ccccc2Sc2ccccc2)S(C)(=O)=O)c1 [#25, 2-(N-(3-acetylphenyl)methylsulfonamido)-N-(2-(phenylthio)phenyl)acetamide]",decrease in bone resorption ability,mouse bone marrow cells,16%
same,cells differentiated into osteoclasts (differentiation area ratio per total area),[1],30%
same,osteoclast differentiation inhibitory ability,[1],excellent
same,Microsomal stability (>60%) H,Microsomal stability (H),8.7%
same,CYP 2C9 remaining activity,CYP2C9,63.7%
same,mRNA expression of DC-STAMP,[2],decrease
same,mRNA expression of OC-STAMP,[2],decrease
same,mRNA expression of cathepsin K (CtsK),[2],decrease
"Cc1cc(C)cc(N([C@@H](C)C(=O)Nc2ccccc2Sc2ccccc2)S(C)(=O)=O)c1 [#25-D5, N^2-(3,5-dimethylphenyl)-N^2-(methylsulfonyl)-N-[2-(phenylthio)phenyl]alanineamide]",bone resorption region (optical microscope),mouse bone marrow cells,not largely shown
same,bone resorption ability (fluorescence intensity),"mouse bone marrow cells; RANKL, 0, 3 or 10 μM",significantly decreased in a dose-dependent manner
same,differentiation area,[1]; [3],significant reduction
same,giant multinuclear cells,[1]; [3],significant reduction
same,number of osteoclasts,[1]; [3],significant reduction
same,Microsomal stability (>60%) H,Microsomal stability (H),10.9%
same,CYP 2C9 remaining activity,CYP2C9,52.4%
same,Acp5 expression level,[2]; [4],slightly decreased
same,CatK expression degree,[2]; [4],significantly decreased
same,DC-STAMP expression level,[2]; [4],decreased on day 1
same,NFATc1 expression degree,[2]; [4],significantly decreased
same,OC-STAMP expression level,[2]; [4],decreased on day 1
"COc1ccc(Cl)cc1N(CC(=O)Nc1ccccc1Sc1ccccc1)S(C)(=O)=O [#25-D12, 2-(N-(5-chloro-2-methoxyphenyl)methylsulfonamido)-N-(2-(phenylthio)phenyl)acetamide]",decrease in bone resorption ability,mouse bone marrow cells,12.5%
same,cells differentiated into osteoclasts (differentiation area ratio per total area),[1],1%
same,osteoclast differentiation inhibitory ability,[1],excellent
same,Microsomal stability (>60%) H,Microsomal stability (H),13.9%
same,CYP 2C9 remaining activity,CYP2C9,59.8%
same,mRNA expression of DC-STAMP,[2],decrease
same,mRNA expression of OC-STAMP,[2],decrease
same,mRNA expression of cathepsin K (CtsK),[2],decrease
